13 compounds from patent US9353075B2, “Disubstituted beta-lactones as inhibitors of N-acylethanolamine acid amidase (NAAA)” (The Regents of the University of California, priority 2011, dated 2016) can be followed below.

Usually IC50 stands for the concentration at which inhibition is half-maximal.

One test has as its target h-NAAA (Homo sapiens (Human), UniProt Q02083). Kind of test: UPLC/MS h-NAAA assay. The format is biochemical. The protocol: NAAA protein preparation (10 μg) was pre-incubated with various concentrations of test compound or vehicle control in 100 mM NaH2PO4, 100 mM Tri Sodium Citrate Dehydrate, 0.1% Triton-X 100, 3 mM DTT, pH 4.5 for 30 min at 37° C. Duplicate samples were then incubated with 50 μM C17:1 10-cis-heptadecenoylethanolamide (Avanti Polar Lipids, Alabaster, Ala.—USA) at 37° C. for 30 minutes. The reaction was terminated by the addition of 0.2 mL of cold methanol containing 1 nmol of heptadecanoic acid (NuChek Prep, Elysian, Minn.—USA) as internal standard. Samples were then analyzed by UPLC/MS. Heptadecenoic and heptadecanoic acids were eluted on an Acquity UPLC BEH C18 column (50 mm length, 2.1 mm i.d., 1.7 μm pore size, Waters) isocratically at 0.5 mL/min for 1.5 min with a solvent mixture of 95% methanol and 5% water, both containing 0.25% Acetic Acid and 5 mM Ammonium Acetate. The column temperature was 40° C. Electrospray ionization was in the negative mode, capillary voltage was 2.7 kV, cone voltage was 45 V, extractor voltage was 3 V. The source temperature was 150° C. with a desolvation temperature of 400° C. N2 was used as drying gas at a cone flow of 100 L/hour and a desolvation flow of […]. The [M−H]-ion was monitored in the selected-ion monitoring mode (m/z values: heptadecenoic acid 267.37, heptadecanoic acid 269.37). Calibration curves were generated using commercial heptadecenoic acid (NuCheck Prep) Inhibition of NAAA activity was calculated as reduction of heptadecenoic acid in the samples compared to vehicle controls. IC50 values were calculated by non-linear regression analysis of log [concentration]/inhibition curves using GraphPad Prism 5 (GraphPad Software Inc., CA—USA) applying a standard slope curve fitting.

Another test has as its target Acid Ceramidase (AC) (Rattus norvegicus (Rat), UniProt Q6P7S1). Kind of test: Acid ceramidase inhibition, recombinant rat AC, LC-MS. The test is classed as biochemical. To be noted: for inhibition at 0.3 µM: read-out: r-AC % inhib. @ 0.3 μM; for inhibition at 10 µM: read-out: r-AC % inhib. @ 10 μM; for IC50: read-out: r-AC IC50. The procedure: The PCR (High Fidelity PCR Master, Roche) product was subcloned into a pEF6-[…] vector (Invitrogen) to construct a mammalian expression vector encoding […]-tagged rat AC. HEK293 cells were transfected with pEF6-rAC-[…] using Super-Fect reagent (Qiagen) and screened with G418 (0.3 mg/mL). Cells were suspended in 20 mM Tris HCl (pH 7.5) containing 0.32M sucrose, sonicated and centrifuged at 800×g for 15 minutes at 4° C. The supernatants were centrifuged again at 12,000×g for 30 minutes at 4° C. The pellets were suspended in phosphate-buffered saline (PBS) and subjected to 2 freeze-thaw cycles at -80° C. The suspensions were centrifuged at 105,000×g for 1 hour at 4° C. The supernatants containing recombinant AC were kept at -80° C. until use. Protein concentration was measured using the bicinchoninic acid (BCA) assay (Pierce). […] Reactions were stopped by addition of a mixture of chloroform/methanol (2:1, vol/vol) containing 1 nmol of heptadecanoic acid (HDA; NuChek Prep). […] HDA was eluted on an XDB Eclipse C18 column isocratically at 2.2 mL/min for 1 minute with a solvent mixture of 95% methanol and 5% water, both containing 0.25% acetic acid and 5 mM ammonium acetate. The column temperature was 50° C. Electrospray ionization (ESI) was in the negative mode, capillary voltage as 4 kV, and fragmentor voltage was 100 V. N2 was used as drying gas at a flow rate of 13 L/min and a temperature of 350° C. Nebulizer pressure was set at 60 psi. We monitored [M-H]- in the selected-ion monitoring (SIM) mode using HDA as internal standard. Calibration curves were generated using commercial lauric acid (Nu-Chek Prep; m/z=199).

The target of the next test is r-NAAA (Rattus norvegicus (Rat), UniProt Q5KTC7). Kind of test: r-NAAA inhibition, rat lung lysosomal NAAA preparation, UPLC/MS. The test is classed as biochemical. The protocol:
Lysosomal NAAA protein preparation were obtained by homogenizing male Sprague-Dawley rat lungs (Charles River) in 20 mM Tris-HCl buffer pH 7.4 containing 0.32M sucrose. Samples were centrifuged at 800×g for 15 minutes at 4° C. Supernatants were then centrifuged at 12,000 g for 30 minutes at 4° C. Pellets were then resuspended in PBS pH 7.4 and subjected to a freeze/thaw cycle at −80° C. The suspension was finally centrifuged at 105,000×g for 1 hour at 4° C. The supernatant was then used in the enzymatic assay.
NAAA protein preparation was pre-incubated with various concentrations of test compounds or vehicle control in 100 mM NaH2PO4/Citrate buffer, 1% Triton-X, 3 mM DTT (pH 4.5) for 30 minutes at 37° C. Samples were then incubated with heptadecenoylethanolamide (50 μM, Avanti Polar Lipids) at 37° C. for 30 min. The reaction was terminated by addition of cold methanol containing heptadecanoic acid (NuCheck Prep) as internal standard. Samples were then analyzed by UPLC/MS (Acquity, Waters). Heptadecenoic and heptadecanoic acids were eluted on an Acquity UPLC BEH C18 column (50 mm length, 2.1 mm i.d., 1.7 μm pore size, Waters) isocratically at 0.5 mL/min for 1.5 min with a solvent mixture of 95% methanol and 5% water, both containing 0.25% Acetic Acid and 5 mM Ammonium Acetate. The column temperature was 40° C. Electrospray ionization was in the negative mode, capillary voltage was 0.5 kV, cone voltage was […], desolvation temperature was 500° C. N2 was used as drying gas at a flow rate of 1000 L/hour and a temperature of 500° C. The [M−H]^− ion was monitored in the selected-ion monitoring mode (m/z values: heptadecenoic acid 267.37, heptadecanoic acid 269.37). Calibration curves were generated using commercial heptadecenoic acid (NuCheck Prep). Inhibition of NAAA activity was calculated as reduction of heptadecenoic acid in the samples compared to vehicle controls. IC50 values were calculated by non-linear regression analysis of log [concentration]/inhibition curves using GraphPad Prism 5 (GraphPad Software Inc., CA—USA) applying a standard slope curve fitting.

The next test relates to DNFB-induced dermatitis. Kind of test: DNFB contact dermatitis in mice, ear thickness. To be noted: mice, PEG 400 solution, each day for 7 days; (S)-OOPP 0.1-10% w/v, compound 6 0.1%. The format is in vivo, mouse. The procedure: 2,4-dinitrofluorobenzene (DNFB) (Sigma-Aldrich, Italy) was dissolved in acetone. On day 1 and 2, mice (CD1, 25-30 g, Charles River, Calco, Italy) were sensitized on the skin of the abdomen with hapten (20 μL of 0.5% DNFB). After 5 days, on day 7, mice were challenged with hapten (20 μL of 0.2% DNFB) in the earlobe and treated with drugs to be tested. Control group received the vehicle used to dissolve drugs. Mice (five per group) were placed in a plastic cage. On day 8, ear thickness was determined after challenge using a caliper. Results are expressed as absolute ear thickness.
Fresh drug suspensions of compound 6 were prepared immediately before use in a vehicle consisting of petrolatum plus 5% lauric acid and given in a volume of 20 μL/mouse. Mice were treated with different concentrations of compound 6 or vehicle together with DNFB challenge on […].
Compound 6 and the reported β-lactone NAAA inhibitor (S)-OOPP (Solorzano et al., Proceedings of the National Academy of Science USA 2009, 106, 20966-20971; Solorzano et al., Journal of Medicinal Chemistry 2010, 53, 5770-5781) were tested in this model for their contact sensitivity response. Fresh drug solutions of (S)-OOPP and compound 6 were prepared immediately before use in polyethylene glycol 400 (PEG 400) and given in a volume of 20 μL/ear. Mice were treated with different concentrations of (S)-OOPP, 0.1% compound 6 or vehicle each day for 7 days. Ear thickness was determined on day 0 and every day before challenge using a caliper. Results are expressed as absolute ear thickness.
The methods included the following. Dermatitis was produced in mice using 2-4 dinitrofluorobenzene (DNFB) as described by Buckley and Nijkamp (1994), Am J Respir Grit Care Med 149:400-7. Mice were sensitized on two consecutive days with a 0.5% DNFB solution applied to the shaved abdomen. At day 8, the ears were challenged with a 0.2% DNFB solution. Ear thickness was determined by using a micrometer. Scratching was evaluated as number of episodes per 60 minutes period. Data were analysed by ANOVA followed by the Bonferroni's test. See also Hargreaves K, et al (1988), Pain 32: 77-88 for related information.

r-NAAA, sequence (Q5KTC7 34-362): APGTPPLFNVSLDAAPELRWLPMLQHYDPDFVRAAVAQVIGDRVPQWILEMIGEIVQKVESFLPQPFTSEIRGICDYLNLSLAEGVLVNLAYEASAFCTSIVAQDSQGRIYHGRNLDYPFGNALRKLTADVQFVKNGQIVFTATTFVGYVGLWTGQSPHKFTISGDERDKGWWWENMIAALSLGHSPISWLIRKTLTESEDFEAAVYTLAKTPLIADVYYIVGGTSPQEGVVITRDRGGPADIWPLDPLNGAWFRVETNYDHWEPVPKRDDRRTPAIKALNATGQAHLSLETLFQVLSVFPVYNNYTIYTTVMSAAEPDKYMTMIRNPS
Acid Ceramidase (AC), sequence (Q6P7S1 21-394): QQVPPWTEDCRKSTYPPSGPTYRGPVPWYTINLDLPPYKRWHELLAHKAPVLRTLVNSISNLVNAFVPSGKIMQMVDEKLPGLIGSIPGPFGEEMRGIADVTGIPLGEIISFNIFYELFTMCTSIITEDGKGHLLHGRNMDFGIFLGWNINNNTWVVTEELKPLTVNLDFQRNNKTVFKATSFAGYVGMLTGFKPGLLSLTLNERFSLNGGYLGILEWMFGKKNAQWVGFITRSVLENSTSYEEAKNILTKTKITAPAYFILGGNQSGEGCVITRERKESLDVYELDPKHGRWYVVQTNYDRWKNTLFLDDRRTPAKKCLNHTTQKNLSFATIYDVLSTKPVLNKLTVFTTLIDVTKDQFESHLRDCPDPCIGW
h-NAAA, sequence (Q02083 29-359): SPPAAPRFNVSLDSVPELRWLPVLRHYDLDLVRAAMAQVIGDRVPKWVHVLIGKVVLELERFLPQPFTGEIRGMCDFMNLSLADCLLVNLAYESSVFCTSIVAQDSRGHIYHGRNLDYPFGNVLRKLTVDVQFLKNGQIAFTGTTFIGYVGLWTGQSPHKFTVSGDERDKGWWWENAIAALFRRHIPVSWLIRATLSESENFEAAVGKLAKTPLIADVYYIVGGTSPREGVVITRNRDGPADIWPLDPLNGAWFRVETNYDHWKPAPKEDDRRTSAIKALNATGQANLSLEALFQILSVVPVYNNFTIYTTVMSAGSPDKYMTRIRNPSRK

Turning to `CC(CCCCc1ccccc1)OC(=O)N[C@H]1C(=O)O[C@H]1C` (mixture of isomers) [Example 22, [(1R) and (1S)-1-methyl-5-phenyl-pentyl]-N-[(2S,3R)-2-methyl-4-oxo-oxetan-3-yl]-carbamate], the results for the IC50 against h-NAAA and at r-NAAA were 14 nM and 30 nM, respectively. In addition, the inhibition at 0.3 µM at Acid Ceramidase (AC) is below 10%.
Consider `O=C(CCc1ccccc1)N[C@H]1COC1=O` [(S)-OOPP, N-[(3S)-2-oxo-3-oxetanyl]-3-phenylpropanamide, reference compound], for which the “Contact sensitivity response (ear swelling)” value with DNFB-induced dermatitis is “did not inhibit contact sensitivity response”.
As for `CCCCCCCCOC(=O)N[C@H]1C(=O)O[C@H]1C` [Example 2, Octyl-[(2S,3R)-2-methyl-4-oxooxetan-3-yl]-carbamate], the inhibition at 0.3 µM at Acid Ceramidase (AC) was below 10%. This compound also yielded an IC50 against r-NAAA of 30 nM.
In the same order, the values of `C[C@@H]1OC(=O)[C@@H]1NC(=O)OCCCCc1ccccc1` [Example 5, 4-phenylbutyl-[(2S,3R)-2-methyl-4-oxooxetan-3-yl]-carbamate] are below 10% and 390 nM.
Regarding `CCCCCCC[C@H](C)OC(=O)N[C@H]1C(=O)O[C@H]1C` [Example 7, [(1S)-1-methyloctyl]-N-[(2S,3R)-2-methyl-4-oxo-oxetan-3-yl]-carbamate], the IC50 turned out to be 5 nM against h-NAAA and 16 nM on r-NAAA. Moreover, the inhibition at 10 µM on Acid Ceramidase (AC) was 45%.
`C[C@@H]1OC(=O)[C@@H]1NC(=O)OC12CC3CC(CC(C3)C1)C2` [Example 12, Tricyclo[3.3.1.1^3,7]dec-1-yl [(2S,3R)-2-methyl-4-oxooxetan-3-yl]-carbamate]: the IC50 at h-NAAA amounted to 540 nM; at r-NAAA, 870 nM.
As to `C[C@@H]1OC(=O)[C@@H]1NC(=O)OCc1ccc(-c2ccccc2)cc1` [Example 17, (4-phenylphenyl)methyl-N-[(2S,3R)-2-methyl-4-oxo-oxetan-3-yl]-carbamate], the IC50 on h-NAAA and against r-NAAA was 7 nM throughout. The inhibition at 10 µM at Acid Ceramidase (AC) turned out to be 30%.
For the compound `C[C@@H]1OC(=O)[C@@H]1NC(=O)OCCCOCc1ccccc1` [Example 18, 3-Benzyloxypropyl-N-[(2S,3R)-2-methyl-4-oxo-oxetan-3-yl]-carbamate], the IC50 against h-NAAA came to 18 nM; against r-NAAA it was 50 nM. Further, the inhibition at 10 µM at Acid Ceramidase (AC) was below 10%.
For `C[C@@H]1OC(=O)[C@@H]1NC(=O)OC(C)(C)CCCCc1ccccc1` [Example 25, (1,1-Dimethyl-5-phenyl-pentyl)-N-[(2S,3R)-2-methyl-4-oxo-oxetan-3-yl]-carbamate], the inhibition at 0.3 µM on Acid Ceramidase (AC) was below 10%. Also, the 50% inhibitory concentration (IC50) against r-NAAA was 310 nM.
As for `C[C@@H]1OC(=O)[C@H]1NC(=O)OCCCCCc1ccccc1` [Example 32, 5-Phenylpentyl-N-[(2S,3S)-2-methyl-4-oxo-oxetan-3-yl]-carbamate], the IC50 was found to be 3800 nM at Acid Ceramidase (AC) and 480 nM against r-NAAA.
As for `C[C@@H]1OC(=O)[C@@H]1NC(=O)OCCCCCC1CCCCC1` [Example 35, 5-Cyclohexylpentyl-N-[(2S,3R)-2-methyl-4-oxo-oxetan-3-yl]-carbamate], the IC50 stood at 5 nM at h-NAAA and 16 nM at r-NAAA. In addition, the inhibition at 10 µM on Acid Ceramidase (AC) was below 10%.
`O=C(N[C@H]1COC1=O)OCCCCCc1ccccc1` [drawing 83, reference compound]: the results for the IC50 at Acid Ceramidase (AC) and against r-NAAA were 1530 nM and 6850 nM, respectively.
In the same order, the values of `O=C(N[C@@H]1COC1=O)OCCCCCc1ccccc1` [reference compound] are 30000 ± 2500 nM and 510 nM.
